# Where “and” joins values, the source holds several entries; their conditions need not be identical. Equal values may be shown once. Read-outs that look alike come from different tables or passages of the source. Peptide text beside a SMILES is read from it. * marks the point of attachment. Cbz = O=C(OCc1ccccc1)*
# Key:
# cathepsin L = target: T1, cathepsin L (Homo sapiens, UniProt P07711, T223A); assay: MALDI-TOF analysis of covalent CatL-inhibitor complex; format: binding; details: 37 °C
# T1 construct: made in house; host or cells: Komagataella pastoris strain GS115
# T1 sequence (P07711 114-333 T223A): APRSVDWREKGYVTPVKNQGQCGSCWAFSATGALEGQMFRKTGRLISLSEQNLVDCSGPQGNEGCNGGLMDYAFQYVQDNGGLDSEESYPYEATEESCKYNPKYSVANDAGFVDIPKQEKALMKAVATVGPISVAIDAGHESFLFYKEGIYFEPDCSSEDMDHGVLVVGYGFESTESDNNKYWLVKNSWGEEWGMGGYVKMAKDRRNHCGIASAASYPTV
# Description: Experiments were performed in two different buffers, one at pH 4.0 (100 mM sodium acetate, pH 4.0, 50 mM NaCl, 5 mM DTT) and the other at pH 6.0 (100 mM sodium phosphate, pH 6.0, 50 mM NaCl, 5 mM DTT).
# Mass spectrometry was performed on an UltrafleXtreme III MALDI-TOF/TOF mass spectrometer (Bruker, Billerica, MA). Samples were prepared on a standard steel target as described by Wenzel et al.[71] The spectra were acquired in a linear mode with a mass range of 20–50 kDa. […] The spectra were externally calibrated with aldolase and BSA standards (Sigma-Aldrich). Acquisition, processing, and calibration were performed using FlexControl 3.0 and FlexAnalysis software (Bruker).
# (B) Two-dimensional interaction plot based on chain A according to Dis-
# Figure S6. […] Activated matured cathepsin L (3 µM)
# Molar ratio 1:10 pH = 4.0
# Molar ratio 1:10 pH = 6.0 […]
# [1] = tested on: SARS-CoV-2-GFP in Vero E6 cells; assay: microbe, parasite or virus in culture; format: cell-based; details: Severe acute respiratory syndrome coronavirus 2, Vero C1008, 48 h, read-out: EC50 (48 h)
# [2] = Cell viability assay (CellTiter-Blue); details: African green monkey
# CatL [3] = target: T2, CatL (Homo sapiens, UniProt P07711, T223A); assay: CatL inactivation assay comparing epoxides at pH 6 and pH 4; format: biochemical
# T2 construct: made in house; host or cells: Komagataella pastoris strain GS115
# T2 sequence (P07711 114-333 T223A): as above
# Description: (§1) Experiments were performed in a solution of 50 mM sodium acetate, pH 4.0, 50 mM NaCl, 0.1% PEG 6000, and 5 mM DTT. Distinct assays with epoxide inhibitors at pH 6.0 were performed in 50 mM sodium phosphate buffer, 50 mM NaCl, 5 mM DTT, 0.1% PEG 6000, adjusted to pH 6.0.
# (§2) M1000 pro plate reader (Tecan), the fluorescent peptide substrate Z-RR-AMC, and excitation and emission wavelengths of 370 and 460 nm, respectively.
# (§3) At first, the inhibitor concentration span was optimized for each inhibitor and the assay buffer. For this initial screening, CatL (5 nM) was mixed with different concentrations of inhibitors (1 nM–50 μM) to determine the range of their inhibition. […] Reaction data were fitted to the […] in GraphPad Prism 9 software: Y = bottom + (top – bottom)/(1 + 10^∧((log IC50 – X) × HillSlope)); X is the log of dose or concentration, Y is the response (fluorescence signal), decreasing as X increases, top and bottom are the plateaus in the same units as Y, log IC50 same log units as X, HillSlope is the slope factor or called the Hill slope.
# Figure S7. Inactivation of CatL.
# (1 picture or pasted object on this page, not shown here)
# CatL [4] = target: T2, CatL; assay: NanoDSF, thermal stability of CatL; format: binding
# SARS-CoV-2 Mpro = SARS-CoV-2 Mpro (Severe acute respiratory syndrome coronavirus 2, UniProt P0DTD1); format: binding; details: 2:1 compound to protein
# Vero E6 cells = assay: Cell viability assay (CellTiter-Blue); details: Vero E6 cells
# [5] = in DMSO; compound supply and quality parameters, supplier named in Table S4; cited from earlier work
# CatL [6] = target: T2, CatL; assay: CatL inhibition assay (Ki), substrate Z-RR-AMC; format: biochemical
# Description: as §1, §2, §3
# CatL [7] = details: Table S1, SI reference list; cited from earlier work
smiles,measurement,setting,value
"O=C(NCc1ccccc1)[C@H](Cc1ccccc1)NC(=O)[C@H]1O[C@@H]1C(=O)NCCc1ccc(O)cc1 [CAA0225, (2S.3S)-2-N-[(1S)-1-(Benzylcarbamoyl)-2-phenylethyl]-3-N-[2-(4-hydroxyphenyl)ethyl]oxirane-2.3-dicarboxamide]",Mass change of cathepsin L main peak with vs without inhibitor,"cathepsin L; pH 4.0, molar ratio 1:10, 15 min",477.7 Da
same,Mass change of cathepsin L main peak with vs without inhibitor,"cathepsin L; pH 6.0, molar ratio 1:10, 15 min",493.8 Da
same,EC50,[1],< 0.5 µM
same,"viability at 48 h, 1e-05 µM",[2],103%
same,"viability at 48 h, 0.0001 µM",[2],103%
same,"viability at 48 h, 0.001 µM",[2],101%
same,"viability at 48 h, 0.01 µM",[2],104%
same,"viability at 48 h, 0.1 µM",[2],100%
same,"viability at 48 h, 1 µM",[2],105%
same,"viability at 48 h, 10 µM",[2],105%
same,Inactivation Rate,"CatL [3]; CAA0225, pH 4, 4.39 nM",0.0001763 per second
same,Inactivation Rate,"CatL [3]; CAA0225, pH 4, 5.85 nM",0.0002627 per second
same,Inactivation Rate,"CatL [3]; CAA0225, pH 4, 6.59 nM",0.0001334 per second
same,Inactivation Rate,"CatL [3]; CAA0225, pH 4, 8.78 nM",0.0003675 per second and 0.0002752 per second
same,Inactivation Rate,"CatL [3]; CAA0225, pH 4, 9.88 nM",0.0001166 per second
same,Inactivation Rate,"CatL [3]; CAA0225, pH 4, 13.17 nM",0.0002828 per second and 0.0003022 per second
same,Inactivation Rate,"CatL [3]; CAA0225, pH 4, 14.82 nM",0.0003059 per second
same,Inactivation Rate,"CatL [3]; CAA0225, pH 4, 19.75 nM",0.0002683 per second and 0.0004006 per second
same,Inactivation Rate,"CatL [3]; CAA0225, pH 4, 22.22 nM",0.0004569 per second
same,Inactivation Rate,"CatL [3]; CAA0225, pH 4, 29.63 nM",0.0004182 per second and 0.0006192 per second
same,Inactivation Rate,"CatL [3]; CAA0225, pH 4, 33.34 nM",0.0007535 per second
same,Inactivation Rate,"CatL [3]; CAA0225, pH 4, 44.44 nM",0.0007461 per second and 0.001023 per second
same,Inactivation Rate,"CatL [3]; CAA0225, pH 4, 50.00 nM",0.001182 per second
same,Inactivation Rate,"CatL [3]; CAA0225, pH 4, 66.67 nM",0.001354 per second and 0.001764 per second
same,Inactivation Rate,"CatL [3]; CAA0225, pH 4, 100.00 nM",0.001979 per second
same,Inactivation Rate,"CatL [3]; CAA0225, pH 6, 4.39 nM",0.0002723 per second
same,Inactivation Rate,"CatL [3]; CAA0225, pH 6, 5.85 nM",0.0006424 per second and 0.0005666 per second
same,Inactivation Rate,"CatL [3]; CAA0225, pH 6, 6.59 nM",0.0004593 per second
same,Inactivation Rate,"CatL [3]; CAA0225, pH 6, 8.78 nM",0.001025 per second and 0.001163 per second
same,Inactivation Rate,"CatL [3]; CAA0225, pH 6, 9.88 nM",0.0009595 per second
same,Inactivation Rate,"CatL [3]; CAA0225, pH 6, 13.17 nM",0.001923 per second and 0.002013 per second
same,Inactivation Rate,"CatL [3]; CAA0225, pH 6, 14.82 nM",0.001982 per second
same,Inactivation Rate,"CatL [3]; CAA0225, pH 6, 19.75 nM",0.00308 per second and 0.003226 per second
same,Inactivation Rate,"CatL [3]; CAA0225, pH 6, 22.22 nM",0.003696 per second
same,Inactivation Rate,"CatL [3]; CAA0225, pH 6, 29.63 nM",0.00521 per second and 0.005796 per second
same,Inactivation Rate,"CatL [3]; CAA0225, pH 6, 33.34 nM",0.006322 per second
same,Inactivation Rate,"CatL [3]; CAA0225, pH 6, 44.44 nM",0.007455 per second and 0.01045 per second
same,Inactivation Rate,"CatL [3]; CAA0225, pH 6, 50.00 nM",0.009878 per second
same,Inactivation Rate,"CatL [3]; CAA0225, pH 6, 66.66 nM",0.01058 per second and 0.01915 per second
same,"2:1, Tm average (CatL)",CatL [4]; 2:1 compound to protein,70 °C
same,"20:1, Tm average (CatL)",CatL [4]; 20:1 compound to protein,78.5 °C
same,"2:1, Tm average (Mpro)",SARS-CoV-2 Mpro,53.3 °C
"CC(C)C[C@@H](C=O)NC(=O)[C@H](CC(C)C)NC(=O)[C@H](CC(C)C)NC(=O)OCc1ccccc1 [MG-132, Z-Leu-Leu-Leu-aldehyde] (Cbz-Leu-Leu-Leu-aldehyde)",cell toxicity,Vero E6 cells,notably high cell toxicity
same,"2:1, Tm average (CatL)",CatL [4],79.7 °C
same,"20:1, Tm average (CatL)",CatL [4],81.7 °C
same,"ΔTm [K] for CatL, 2:1 ratio",CatL [4],16.6 ± 0.1 K
same,"ΔTm (for CatL), 2:1 compound to protein mixing ratio",CatL [4]; pH 5,"16,6 ± 0,1 °C and 16.6 °C"
same,"ΔTm (for CatL), 20:1 compound to protein mixing ratio",CatL [4]; pH 5,"18,6 ± 0,1 °C and 18.6 °C"
"CCc1ccccc1NC(=O)CSC(=O)NNC(=O)[C@H](Cc1c[nH]c2ccccc12)NC(=O)OC(C)(C)C [TC-I, tert-Butyl N-[(2S)-1-[2-[2-(2-ethylanilino)-2-oxoethyl]sulfanylcarbonylhydrazinyl]-3-(1H-indol-3-yl)-1-oxopropan-2-yl]carbamate]",Solvent (max. solubility),[5],50 mg/mL
same,"ΔTm (for CatL), 2:1 compound to protein mixing ratio","CatL [4]; 5 µM CatL, pH 5.0, 2% DMSO, 2:1","18,4 ± 0,1 °C and 18.4 °C"
same,"ΔTm (for CatL), 20:1 compound to protein mixing ratio","CatL [4]; 5 µM CatL, pH 5.0, 2% DMSO, 20:1","18,8 ± 0,0 °C and 18.8 °C"
same,"2:1, Tm average (CatL)",CatL [4]; 2:1 compound to protein,81.5 °C
same,"20:1, Tm average (CatL)",CatL [4]; 20:1 compound to protein,81.9 °C
same,"ΔTm [K] for CatL, 2:1 ratio","CatL [4]; Table S1, 2:1 ratio",18.4 ± 0.1 K
same,Ki,"CatL [6]; CatL, Z-RR-AMC, pH 4.0, 37 °C, read-out: Ki",0.0714 µM
same,Residual activity (Vi/V0),CatL [6]; TC-I 0.665 nM,0.9864 and 1.185
same,remaining activity at 0.000665 µM,"CatL [6]; TC-I 0.665 nM, read-out: Residual activity (Vi/V0)",100%
same,Residual activity (Vi/V0),CatL [6]; TC-I 1.109 nM,0.9905 and 1.057
same,remaining activity at 0.001109 µM,"CatL [6]; TC-I 1.109 nM, read-out: Residual activity (Vi/V0)",98.8%
same,Residual activity (Vi/V0),CatL [6]; TC-I 1.849 nM,0.9855 and 1.105
same,remaining activity at 0.001849 µM,"CatL [6]; TC-I 1.849 nM, read-out: Residual activity (Vi/V0)",103%
same,Residual activity (Vi/V0),CatL [6]; TC-I 3.082 nM,1.069 and 1.158
same,remaining activity at 0.003082 µM,"CatL [6]; TC-I 3.082 nM, read-out: Residual activity (Vi/V0)",111%
same,Residual activity (Vi/V0),CatL [6]; TC-I 5.140 nM,1.026 and 1.097
same,remaining activity at 0.00514 µM,"CatL [6]; TC-I 5.140 nM, read-out: Residual activity (Vi/V0)",104%
same,Residual activity (Vi/V0),CatL [6]; TC-I 8.568 nM,1.0471 and 1.09
same,remaining activity at 0.008568 µM,"CatL [6]; TC-I 8.568 nM, read-out: Residual activity (Vi/V0)",105%
same,Residual activity (Vi/V0),CatL [6]; TC-I 14.274 nM,0.9298 and 0.9778
same,remaining activity at 0.014274 µM,"CatL [6]; TC-I 14.274 nM, read-out: Residual activity (Vi/V0)",100%
same,Residual activity (Vi/V0),CatL [6]; TC-I 23.798 nM,0.9534 and 0.9214
same,remaining activity at 0.023798 µM,"CatL [6]; TC-I 23.798 nM, read-out: Residual activity (Vi/V0)",93.3%
same,Residual activity (Vi/V0),CatL [6]; TC-I 39.658 nM,0.9235 and 0.9214
same,remaining activity at 0.039658 µM,"CatL [6]; TC-I 39.658 nM, read-out: Residual activity (Vi/V0)",74.6%
same,Residual activity (Vi/V0),CatL [6]; TC-I 66.096 nM,0.583 and 0.7717 and 0.8256
same,Residual activity (Vi/V0),CatL [6]; TC-I 110.160 nM,0.683 and 0.704
same,remaining activity at 0.11016 µM,"CatL [6]; TC-I 110.160 nM, read-out: Residual activity (Vi/V0)",51.2%
same,Residual activity (Vi/V0),CatL [6]; TC-I 183.600 nM,0.3014 and 0.3466 and 0.5578
same,IC50,CatL [7],0.0069 µM
